Measurements as given in paper PMC10875103, “Selective synthesis of rebaudioside M2 through structure-guided engineering of glycosyltransferase UGT94D1” (Frontiers in Bioengineering and Biotechnology, 2024).

Biological target: T1, UGT94D1 (Sesamum indicum, UniProt A0A6I9T8N3, F119I/D188P)
T1 construct: gene LOC105161042; full ORF, synthetic codon-optimised gene; Ni-NTA purified and desalted
Experiment: UPLC glucosylation assay, […] h turnover
Format: biochemical
Settings: 0.5 mM Reb D, 5 mM UDPG, 10 mM MnCl2, 50 mM Tris-HCl pH 8.0, 35 °C

T1 sequence (A0A6I9T8N3 entry or part of it F119I/D188P): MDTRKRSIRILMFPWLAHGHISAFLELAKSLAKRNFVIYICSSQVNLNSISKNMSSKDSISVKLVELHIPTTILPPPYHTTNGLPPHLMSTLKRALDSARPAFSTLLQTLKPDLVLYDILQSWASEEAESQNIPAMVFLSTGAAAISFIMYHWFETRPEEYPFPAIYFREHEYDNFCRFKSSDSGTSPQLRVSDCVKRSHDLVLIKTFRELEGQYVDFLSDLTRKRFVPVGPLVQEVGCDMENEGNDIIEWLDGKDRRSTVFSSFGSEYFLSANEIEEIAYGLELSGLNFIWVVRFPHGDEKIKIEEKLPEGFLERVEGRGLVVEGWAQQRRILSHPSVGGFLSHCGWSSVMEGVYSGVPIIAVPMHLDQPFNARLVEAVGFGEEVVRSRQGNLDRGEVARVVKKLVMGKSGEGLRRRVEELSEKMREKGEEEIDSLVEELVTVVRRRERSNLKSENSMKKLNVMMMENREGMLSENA

For C=C1C[C@@]23CC[C@H]4[C@@](C)(CCC[C@@]4(C)C(=O)O[C@@H]4O[C@H](CO)[C@@H](O)[C@H](O)[C@H]4O[C@@H]4O[C@H](CO)[C@@H](O)[C@H](O)[C@H]4O)[C@@H]2CC[C@]1(O[C@@H]1O[C@H](CO)[C@@H](O)[C@H](O[C@@H]2O[C@H](CO)[C@@H](O)[C@H](O)[C@H]2O)[C@H]1O[C@@H]1O[C@H](CO)[C@@H](O)[C@H](O)[C@H]1O)C3 [rebaudioside D], the relative activity was “catalytic activities of mutants F119I/D188P and F119P/D188P were further improved”.
